Data reported in US20040191842A1, “Chemopreventive and therapeutic aspects of polyphenolic compositions and assays” (Medical College of Georgia Research Institute, Inc., priority 2002, published 2004).

Columns and labels:
[1] = test system: MCF7 cells; assay: Cell growth assay, MCF7 cells; type: cell-based, human; conditions: 50 μM EGCG, 96 hours
Description: Cell growth assay. MCF7 cells were seeded (5×10^4) in 25 cm^2 tissue culture flask for 24 hours prior to EGCG or GTPPs incubation. Cells from each flask were trypsinized and counted at each time point on a hemacytometer.

[2] = test system: NHEK; assay: MTT assay (SDH activity), NHEK; type: cell-based, human; conditions: EGCG at various concentrations or 0.2 mg/ml GTP, 24 h
Source text: Succinate dehydrogenase activity assay (MTT assay).

[3] = test system: MCF7 cells; assay: BrdU incorporation assay, MCF7 cells; type: cell-based, human; conditions: increasing EGCG
Description: (§1) DNA synthesis analysis using BrdU incorporation method. The BrdU cell proliferation kit was purchased from Oncogene Research Products, Boston, Mass. Cells were culture in 96 well plates with 10^4 cells/well. After EGCG and GTPPs treatments, cells were labeled by BrdU, reacted with BrdU antibody and the color reaction was carried out according to the protocol provided by the manufacturer. The coloration was measure by a Thermo MAX microplate reader using wavelengths 450 nm-562 nm.

[4] = test system: OSC-GFP cells and NHEK; assay: Co-culture of OSC-GFP cells and NHEK, double fluorescence; type: cell-based, human; conditions: overlay co-culture, 100 μM EGCG, 24 hour
Description: Co-culture and GTPP treatment. Various patterns of co-culture of the tumor/normal cells were achieved by different designs. Examples include:
1. Adjacent co-culture design. OSC-GFP cells (5×10^4) were seeded in the center of a culturing device (8-well chamber-slide, Nagle Nunc International, Naperville, Ill.) through a cloning cylinder (Fisher Scientific/Scienceware, Tapered Design, 4.7×8 mm) in DMEM/F12 medium and allowed to attach for 24 hours. NHEK (10^5) in KGM-2 were then seeded in the area next to the cylinder. After 24 hours, the cylinder was removed and the medium was replaced by a 50/50 mix of KGM-2 and DMEM/F12 and the cells were allowed to grow for another 24 hours prior to treatment (FIG. 21, right).
2. Overlay design, which could be adapted for high throughput screening in 96 well plate. […]
4. Tumor cell migration was monitored by co-culturing OSC-GFP and NHEK in wells of a 24 well plate as indicated in “1”, except the NHEK cell number was doubled. After treatment, tumor cell migration into NHEK territory was recorded by fluorescent microscopy at selected time points. […]
Immunofluorescence and photography. […] Fluorescence was generated by a ZEISS AttoArc 2 source. […]
The total fluorescence intensities of images were quantified using the BIOQUANT NOVA PRIME 6.0 software (Bioquant Co., Nashville, Tenn.). […]

[5] = test system: aged normal human primary epidermal keratinocytes; assay: BrdU incorporation assay, aged keratinocytes; type: cell-based; conditions: EGCG 15-50 μM, 15-day and 20-day keratinocytes
Description: Culturing normal human epithelial cells. The pooled normal human primary epidermal keratinocytes were purchased from Cambrex (Baltimore, Md.) and sub-cultured in the specific growth media provided by the manufacturer (KGM-2). […] Exponentially growing keratinocytes were treated and harvested in their early passages (2-3 passages). […] Analysis of DNA synthesis using the BrdU incorporation method. The BrdU cell proliferation kit was purchased from Oncogene Research Products (Boston, Mass.). […] Experiments were repeated three times in triplicate for each experiment.

[6] = test system: NHEK; assay: Light microscopy of NHEK grown alone; type: cell-based, human; conditions: 100 μM EGCG, 24 hour
[7] = test system: OSC2 cells; assay: BrdU incorporation assay, OSC2 (OSC-2) cells; type: cell-based, human
Description: as §1
(§2) DNA synthesis assay. DNA synthesis was analyzed by a BrdU Cell Proliferation Assay Kit (Oncogene Research Products, Boston, Mass.). […] After the treatment, cells were labeled with BrdU for 2 hours at 37° C. and reacted with anti-BrdU antibody. Unbound antibody in each well was removed by rinsing, and horseradish peroxidase-conjugated goat anti-mouse antibody was added to each well. The color reaction was visualized according to the protocol provided by the manufacturer.
as §2, with “cell proliferation assay kit” for “Cell Proliferation Assay Kit”, “anti-mouse IgG” for “anti-mouse”, “reaction to visualize the secondary antibody” for “reaction”, “carried out” for “visualized”

For O=C(O[C@@H]1Cc2c(O)cc(O)cc2O[C@@H]1c1cc(O)c(O)c(O)c1)c1cc(O)c(O)c(O)c1 [EGCG, (−)-epigallocatechin-3-gallate], the “cell number compared to untreated cultures” value [1] was “only an insignificant decrease in cell number”, the “SDH activity (MTT assay)” value [2] was “not significantly affected” and the BrdU incorporation [3] was “able in incorporate BrdU efficiently”. The “ratio of fluorescence intensities of rhodamine (red)/FITC (green)” value [4] was 1.23, the BrdU incorporation [5] was “slight negative impact on BrdU incorporation” and the cell death [6] was “showed no cell death”. The “BrdU incorporation, of control levels” value ([7]; 200 μM EGCG) was “approximately 75%”, the “reduction of BrdU incorporation” value ([7]; 200 μM EGCG, 24-hour period) was “approximately 25%” and the BrdU incorporation ([7]; EGCG concentrations reached 50 μM, or GTPPs) was “ceased BrdU incorporation”.
